{
  "source": "paper PMC7044277",
  "about": "(Nature Communications, 2020)",
  "type_in_all_cases": "cell-based",
  "key": {"320 non-olfactory GPCRs [1]": {"molecular_target": "320 non-olfactory GPCRs (Homo sapiens, UniProt P61073)", "sequence (P61073 whole entry)": "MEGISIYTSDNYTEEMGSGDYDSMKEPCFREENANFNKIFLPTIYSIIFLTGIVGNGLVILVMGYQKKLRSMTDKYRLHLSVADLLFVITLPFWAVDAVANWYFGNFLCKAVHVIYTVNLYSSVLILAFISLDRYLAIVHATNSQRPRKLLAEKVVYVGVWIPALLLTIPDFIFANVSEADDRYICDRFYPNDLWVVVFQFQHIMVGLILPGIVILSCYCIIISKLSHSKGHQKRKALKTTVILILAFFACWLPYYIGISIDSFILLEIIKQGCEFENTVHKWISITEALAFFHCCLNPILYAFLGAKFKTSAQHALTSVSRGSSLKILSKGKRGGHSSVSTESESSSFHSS"}, "320 non-olfactory GPCRs [2]": {"molecular_target": "T1, 320 non-olfactory GPCRs (Homo sapiens, UniProt P30556)", "T1 construct": "expressed in transfected cells; host or cells: HTLA cells", "T1 sequence (P30556 whole entry)": "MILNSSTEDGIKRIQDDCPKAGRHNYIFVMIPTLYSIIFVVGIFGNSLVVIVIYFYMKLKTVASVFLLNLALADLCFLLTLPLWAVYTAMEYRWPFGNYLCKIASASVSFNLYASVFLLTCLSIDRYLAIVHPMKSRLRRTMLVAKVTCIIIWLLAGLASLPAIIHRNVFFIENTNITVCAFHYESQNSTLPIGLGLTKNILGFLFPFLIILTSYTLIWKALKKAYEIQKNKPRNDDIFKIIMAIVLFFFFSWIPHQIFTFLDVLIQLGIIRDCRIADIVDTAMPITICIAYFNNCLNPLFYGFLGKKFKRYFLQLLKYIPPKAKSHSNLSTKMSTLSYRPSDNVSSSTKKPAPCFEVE"}, "320 non-olfactory GPCRs [3]": {"molecular_target": "T2, 320 non-olfactory GPCRs (Homo sapiens, UniProt P55085)", "T2 construct": "expressed in transfected cells; host or cells: HTLA cells", "T2 sequence (P55085 26-397)": "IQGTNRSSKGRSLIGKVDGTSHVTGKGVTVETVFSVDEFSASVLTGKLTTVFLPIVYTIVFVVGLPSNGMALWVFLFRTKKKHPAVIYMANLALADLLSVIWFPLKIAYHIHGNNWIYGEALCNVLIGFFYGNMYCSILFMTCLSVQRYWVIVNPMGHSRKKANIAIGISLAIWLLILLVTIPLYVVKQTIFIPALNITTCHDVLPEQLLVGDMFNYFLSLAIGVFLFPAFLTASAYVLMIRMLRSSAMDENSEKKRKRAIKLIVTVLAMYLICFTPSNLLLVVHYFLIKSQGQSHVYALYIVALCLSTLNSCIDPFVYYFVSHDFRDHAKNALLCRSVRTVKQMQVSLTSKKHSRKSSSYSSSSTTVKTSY"}, "320 non-olfactory GPCRs [4]": {"molecular_target": "T3, 320 non-olfactory GPCRs (Homo sapiens, UniProt Q9H1Y3)", "T3 construct": "expressed in transfected cells; host or cells: HTLA cells", "T3 sequence (Q9H1Y3 whole entry)": "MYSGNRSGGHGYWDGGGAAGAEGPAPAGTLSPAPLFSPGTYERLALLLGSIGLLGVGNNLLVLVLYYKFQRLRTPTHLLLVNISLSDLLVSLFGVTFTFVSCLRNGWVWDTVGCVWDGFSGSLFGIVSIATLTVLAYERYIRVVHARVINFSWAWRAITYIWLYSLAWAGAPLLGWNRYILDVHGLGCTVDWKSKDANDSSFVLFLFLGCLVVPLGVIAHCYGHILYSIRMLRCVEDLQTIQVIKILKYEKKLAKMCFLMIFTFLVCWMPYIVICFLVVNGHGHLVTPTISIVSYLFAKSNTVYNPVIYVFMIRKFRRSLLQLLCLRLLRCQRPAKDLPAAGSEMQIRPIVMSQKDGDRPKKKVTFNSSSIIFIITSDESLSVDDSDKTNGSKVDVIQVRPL", "settings": "receptor OPN3; replicate values, Fig_4g"}},
  "note": "Values joined by “and” are separate entries in the source; they are usually repeats but may differ in a detail not shown here. Equal values may be shown once.",
  "data": [
    {"compound": "CCOc1cccc2cc(C(C)NCC3(O)CCCCC3)oc12", "note": "(stereo not shown) [O4LE6];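 as to Fold of Basal: compound tested at 1 µM final concentration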;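 as to GPCRome agonism screen response: fold over basal response of each receptor without drug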", "values": [
      {"measurement": "Fold of Basal", "setting": "320 non-olfactory GPCRs [1]", "result": "0.9863 and 0.8615 and 0.8471 and 0.9066"},
      {"measurement": "Fold of Basal", "setting": "320 non-olfactory GPCRs [2]", "result": "1.668 and 2.301 and 2.105 and 2.204"},
      {"measurement": "Fold of Basal", "setting": "320 non-olfactory GPCRs [3]", "result": "0.6754 and 1.05 and 1.156 and 0.8918"},
      {"measurement": "GPCRome agonism screen response", "setting": "320 non-olfactory GPCRs [4]", "result": "1.462 and 1.944 and 1.753 and 1.142"}
    ]}
  ]
}
